Key:
[1] = test system: human breast cancer HCC1806 cells; experiment: Assay of cell proliferation (CellTiter-Glo); type: cell-based; conditions: Homo sapiens, 144 h, 6 days, read-out: HCC1806 IC50 of cell proliferation inhibitory activity
Method in brief: (§1)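 Cells seeded per line at growth-adapted densities, treated 6 days at 37 °C/5% CO2 with nine 3-fold dilutions (10 µM to 0.1 nM final, 0.5% DMSO). Viability by CellTiter-Glo luminescence; IC50 from four-parameter fit.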

[2] = test system: human gastric cancer MKN1 cells; experiment: Assay of cell proliferation (CellTiter-Glo); type: cell-based; conditions: Homo sapiens, MKN-1, 144 h; MNK1, 6 days; read-out: MKN1 IC50 of cell proliferation inhibitory activity
Method in brief: as §1

[3] = test system: human colon cancer HCT-116 cells; experiment: Assay of cell proliferation (CellTiter-Glo); type: cell-based; conditions: 144 h, 6 days, read-out: HCT-116 IC50 of cell proliferation inhibitory activity
Method in brief: as §1

[4] = molecular target: CDK2/cyclin E (Homo sapiens, UniProt P24941); experiment: Assay of kinase activity (ADP-Glo); type: biochemical; conditions: kinase inhibitory activity, read-out: CDK2/E1 IC50
Method in brief: (§2)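 Kinase preincubated 10 min with compound in 50 mM Hepes, 10 mM MgCl2, 0.01% Brij35, 2 mM DTT, then substrate/ATP added for 60 min at 25 °C. ADP formed measured by ADP-Glo luminescence; IC50 by nonlinear concentration-response fitting.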

[5] = molecular target: CDK4/cyclin D1 (Homo sapiens, UniProt P11802); experiment: Assay of kinase activity (ADP-Glo); type: biochemical; conditions: kinase inhibitory activity
Method in brief: as §2

[6] = test system: Human gastric cancer MKN1 cells; experiment: MKN1 tumor model; type: in vivo; conditions: female BALB/c nude mice, p.o. 10, 20 and 30 mg/kg once daily, 22 days, Fig. 4
Experimental: Human gastric cancer MKN1 cells were cultured in RPMI 1640 medium containing 10% FBS at 37 °C and 5% CO2 in an incubator. Matrigel was mixed with serum-free RPMI 1640 medium at a ratio of 1:1, and then the mixture was used to resuspend the MKN1 cancer cells at 1 × 10^7 / 0.1 ml. Then, the cells were inoculated subcutaneously into the right rib area of female BALB/c nude mice. When the volume of tumors reached approximately 100-150 mm^3, the mice were randomly divided into groups for treatment, with six animals per group. The compound was prepared in a 20% aqueous solution of hydroxypropyl-gamma-cyclodextrin containing an equivalent amount of hydrochloric acid, and administered by oral gavage (p.o.) at dosages of 10, 20, and 30 (mg/kg) once daily, for a total of 22 days. The untreated group was given solvent by oral gavage. The tumor volume was measured twice a week using a vernier caliper by measuring the long and short diameters of a tumor. The formula for calculating a tumor volume was: volume (mm^3) = (long diameter (mm) × short diameter (mm) × short diameter (mm)/2. The mice were weighed daily.
(§3) The therapeutic effect of a drug was evaluated using the tumor growth inhibition (TGI%).

[7] = test system: Human ovarian cancer OVCAR3 cells; experiment: Assay of cell proliferation (CellTiter-Glo); type: cell-based; conditions: Homo sapiens, OVCAR-3, 144 h, 6 days, read-out: OVCAR3 IC50 of cell proliferation inhibitory activity
Method in brief: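 OVCAR3 cells, 2000/well in RPMI 1640 with 20% FBS, treated with nine 3-fold dilutions from 10 µM to 0.1 nM (0.5% DMSO) for 6 days at 37 °C. Viability by CellTiter-Glo luminescence; IC50 by four-parameter fit.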

[8] = test system: Human ovarian cancer OVCAR-3 cells; experiment: OVCAR-3 tumor model; type: in vivo; conditions: female NOD-SCID mice, p.o. 5, 10 and 15 mg/kg twice daily, 22 days, Fig. 3
Experimental: Human ovarian cancer OVCAR-3 cells were cultured in RPMI 1640 medium containing 20% FBS at 37 °C and 5% CO2 in an incubator. Matrigel was mixed with serum-free RPMI 1640 medium at a ratio of 1:1, and then the mixture was used to resuspend the OVCAR-3 cancer cells at 2 × 10^7 cells/0.2 ml. Then, the cells were inoculated subcutaneously into the right rib area of female NOD-SCID mice. When the volume of tumors reached approximately 100-150 mm^3, the mice were randomly divided into groups for treatment, with six animals per group. The compound of example I-10 was prepared in a 20% aqueous solution of hydroxypropyl-gamma-cyclodextrin containing an equivalent amount of hydrochloric acid, and administered by oral gavage (p.o.) at dosages of 5, 10, and 15 (mg/kg) twice daily, 8 hours apart, for a total of 22 days. The PF06873600 treatment group was used as a positive control, and the untreated group was given solvent by oral gavage. The tumor volume was measured twice a week using a vernier caliper by measuring the long and short diameters of a tumor. The formula for calculating a tumor volume was: volume (mm^3) = (long diameter (mm) × short diameter (mm) × short diameter (mm)/2. The mice were weighed daily.
as §3

Sequence of CDK4/cyclin D1 (P11802 whole entry, species assumed): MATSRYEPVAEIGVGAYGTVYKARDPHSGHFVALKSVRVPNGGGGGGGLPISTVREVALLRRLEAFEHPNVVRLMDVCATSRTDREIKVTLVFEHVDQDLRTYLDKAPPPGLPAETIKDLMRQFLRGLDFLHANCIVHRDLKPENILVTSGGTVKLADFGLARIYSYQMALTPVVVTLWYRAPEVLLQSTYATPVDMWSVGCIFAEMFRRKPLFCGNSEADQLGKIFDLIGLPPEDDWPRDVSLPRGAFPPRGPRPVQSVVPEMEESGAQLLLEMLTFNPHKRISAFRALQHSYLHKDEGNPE
Sequence of CDK4/cyclin D1 (P24385 whole entry partner, species assumed): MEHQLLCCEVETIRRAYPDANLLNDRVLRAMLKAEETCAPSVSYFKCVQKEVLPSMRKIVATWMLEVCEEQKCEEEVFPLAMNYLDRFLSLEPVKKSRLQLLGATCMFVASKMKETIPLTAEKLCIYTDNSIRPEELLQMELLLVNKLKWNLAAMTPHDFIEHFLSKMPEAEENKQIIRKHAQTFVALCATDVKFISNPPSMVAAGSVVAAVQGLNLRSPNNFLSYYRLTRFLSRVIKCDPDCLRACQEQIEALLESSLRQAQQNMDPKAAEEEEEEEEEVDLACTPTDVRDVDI

- IC50 [1]: 22 nM
- IC50 [2]: 15 nM
- IC50 [3]: 11 nM
- IC50 [4]: 0.1 nM
- IC50 [5]: 0.6 nM
- IC50 [7]: 16 nM
Structure (SMILES): CC(C)n1nnc2ccc3cnc(Nc4ccc(C(=O)N5CC[C@H](N(C)C)C5)cc4)nc3c21 [Example I-10, (S)-(3-(Dimethylamino)pyrrolidin-1-yl)(4-((1-isopropyl-1H-[1,2,3]triazolo[4,5-H]quinazolin-8-yl)amino)phenyl)metha none]
- growth inhibitory effect on the MKN1 tumor model (TGI%) [6]: dose-dependent relationship
- growth inhibitory effect on the OVCAR-3 tumor model (TGI%) [8]: dose-dependent relationship
